# Data taken from US20070167527A1, “MEMANTINE FOR THE NORMALIZATION OF VISUAL ACUITY DEFICITS” (priority 2006, published 2007).
# Tests used:
# [1] = test system: retinal cells; test: Histology (H&E) examination of eyes after transient IOP elevation; format: in vivo, rabbit; conditions: compared with the placebo group (patchy loss of predominantly outer retina cells)
# Protocol: This invention is especially useful in the use of memantine to normalize visual acuity deficits from outer retina (photoreceptor/RPE) injury. […] Retinal cell degeneration was less in the memantine group compared with the placebo group. Rabbits were anesthetized with isofluorane, and prepared for unilateral acute retinal ischemia by raising IOP in the OD eye by 120 mm Hg for 45 minutes. To accomplish this, a reservoir with PBS was suspended 65 inches above the eye and connected to a 30 gauge needle inserted through the cornea into the anterior chamber. A drop of topical anesthetic (proparacaine) was placed upon the cornea prior to needle insertion.
# [2] = test system: rabbits; test: Visual acuity by sweep visual evoked potential (swVEP) in conscious rabbits after transient IOP elevation; format: in vivo, rabbit; conditions: 4.5 months after transient IOP elevation; 2.5 kg rabbits pre-treated with oral dose of 50 mg memantine; compared with 50 mg sugar placebo (reduction in acuity)
# Protocol: This invention is especially useful in the use of memantine to normalize visual acuity deficits from outer retina (photoreceptor/RPE) injury.
# Rabbits were anesthetized with isofluorane, and prepared for unilateral acute retinal ischemia by raising IOP in the OD eye by 120 mm Hg for 45 minutes. To accomplish this, a reservoir with PBS was suspended 65 inches above the eye and connected to a 30 gauge needle inserted through the cornea into the anterior chamber. A drop of topical anesthetic (proparacaine) was placed upon the cornea prior to needle insertion.
# swVEP is an electrophysiological technique for assessing visual acuity in young children who can't read the Snellen eye charts. Pattern reversal images of increasing spatial frequency are projected onto the macula while simultaneously recording electrical activity (VEP) from the scalp. Images with lower spatial frequency generate large signals which get smaller as the spatial frequency increases, until signal=noise; this threshold is the visual acuity. […]
# Vertical steady-state pattern-reversal sweep stimulus at spatial frequency range of 0.1 to 5 cycles per degree at a temporal frequency of 7.5 Hz were applied to the eye at mean luminance of 600 cd/m2 and contrast of 80%. […] Trials were averaged and the threshold (visual acuity) was determined by software or manual fitting at signal-to-noise ration no less than 2.5. […]
smiles,measurement,setting,value
CC12CC3CC(C)(C1)CC(N)(C3)C2 [memantine],retinal cell degeneration,[1],less
same,visual acuity,[2],normal visual acuities
